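Cultured in 96-well plates, cells were exposed to test compound for 48 hours across five concentrations. The concentration for full growth arrest is given as TGI.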
Experiments:
Experiment in all cases: DTP human tumour cell line panel, 48 h
SN12C renal = system: SN12C renal
SR leukemia = system: SR leukemia
CCRF-CEM leukemia = system: CCRF-CEM leukemia
MALME-3M melanoma = system: MALME-3M melanoma
CAKI-1 renal = system: CAKI-1 renal
NCI/ADR-RES ovarian = system: NCI/ADR-RES ovarian
SNB-75 CNS = system: SNB-75 CNS
PC-3 prostate = system: PC-3 prostate
NCI-H522 lung = system: NCI-H522 lung
COLO 205 colon = system: COLO 205 colon
HS 578T breast = system: HS 578T breast

Structure (SMILES) | TGI (SN12C renal) | TGI (SR leukemia) | TGI (CCRF-CEM leukemia) | TGI (MALME-3M melanoma) | TGI (CAKI-1 renal) | TGI (NCI/ADR-RES ovarian) | TGI (SNB-75 CNS) | TGI (PC-3 prostate) | TGI (NCI-H522 lung) | TGI (COLO 205 colon) | TGI (HS 578T breast)
CCOC(=O)CC[C@@H](NC(=O)c1ccc(N[C@@H]2c3cc4c(cc3C(c3cc(OC)c(O)c(OC)c3)C3C(=O)OC[C@@H]32)OCO4)cc1)C(=O)OCC (some centres not stated) | 0.0897 µM | > 10 µM | > 10 µM | 0.236 µM | 0.0539 µM | – | – | – | – | – | –
COC(=N)C12C(N)=NC(OC)(OC)C1(C#N)C21C(=O)N(c2ccccc2)N=C1C (configuration not stated) | > 100 µM | > 100 µM | > 100 µM | > 100 µM | > 100 µM | > 100 µM | > 100 µM | > 100 µM | > 100 µM | > 100 µM | –
COC(=O)CC1C(=O)OCc2c1cc1n(c2=O)Cc2c-1nc1ccccc1c2OC (configuration not stated) | > 100 µM | 40.8 µM | > 100 µM | > 100 µM | 34.4 µM | – | > 100 µM | – | > 100 µM | > 100 µM | –
CN(C)CCNc1ccc2c(=O)n(CCN(C)C)c(=O)n3c4ccc(N)cc4c(=O)c1c23 | 0.306 µM | – | 0.16 µM | 0.352 µM | 4.76 µM | 2.28 µM | 0.442 µM | 0.477 µM | 0.0832 µM | 1.26 µM | 1.3 µM
CC1N(C)C(=O)OC12CCN(CCCC(=O)c1ccc(F)cc1)CC2 (configuration not stated) | > 100 µM | – | > 100 µM | > 100 µM | > 100 µM | > 100 µM | > 100 µM | > 100 µM | > 100 µM | > 100 µM | > 100 µM
O=C1CCC2SC1CCC2=O | > 100 µM | – | > 100 µM | > 100 µM | > 100 µM | > 100 µM | > 100 µM | > 100 µM | > 100 µM | > 100 µM | –
COC(=O)c1c(C(=O)OC)c2cc(C(=O)c3ccccc3)ccn2c1Cl | > 100 µM | 40.5 µM | 78 µM | > 100 µM | – | – | 55.4 µM | – | 50.8 µM | > 100 µM | –
NC1CC(=O)c2cc(Br)sc21 (configuration not stated) | > 100 µM | > 100 µM | > 100 µM | > 100 µM | > 100 µM | > 100 µM | > 100 µM | > 100 µM | – | > 100 µM | –
CCCCc1c2c(nc3c1CCC/C3=C\c1ccccc1)C(=O)C(CN(C)C)CC2 (configuration not stated) | 43.1 µM | 9.17 µM | 33 µM | 40.4 µM | – | 91.7 µM | 27 µM | 29.1 µM | 30.1 µM | 36.6 µM | 70.8 µM
CCOC(=O)c1ccc(C(=O)/C(C#N)=C2\CCCN2)[nH]1 | > 100 µM | 84.5 µM | > 100 µM | > 100 µM | > 100 µM | > 100 µM | > 100 µM | > 100 µM | – | > 100 µM | > 100 µM
CC(C)CCC[C@@H](C)C1CCC2[C@@H]3CCC4CC(CCC=C(c5cc(Cl)c(OC(=O)c6ccccc6)c(C(=O)O)c5)c5cc(Cl)c(OC(=O)c6ccccc6)c(C(=O)O)c5)CC[C@]4(C)C3CC[C@@]21C (some centres not stated) | > 100 µM | – | > 100 µM | > 100 µM | > 100 µM | > 100 µM | > 100 µM | > 100 µM | > 100 µM | > 100 µM | > 100 µM
S=C(Nc1cccc(Cl)c1)Nc1ccccn1 | > 100 µM | > 100 µM | > 100 µM | > 100 µM | > 100 µM | > 100 µM | > 100 µM | > 100 µM | – | > 100 µM | > 100 µM
Cc1cc(Cl)ccc1N=NC(=O)NNc1ccc(Cl)cc1C | 30.1 µM | 80.7 µM | 58.5 µM | 37.9 µM | – | – | 33.3 µM | 22.8 µM | 35.1 µM | – | –
COC(=O)[C@H](Cc1ccccc1)NC(=O)N1CCN(C(=O)N[C@@H](Cc2ccccc2)C(=O)OC)CCN(C(=O)N[C@@H](Cc2ccccc2)C(=O)OC)CC1 | > 100 µM | – | > 100 µM | > 100 µM | > 100 µM | > 100 µM | > 100 µM | > 100 µM | > 100 µM | > 100 µM | > 100 µM
C=C(C)[C@@H]1CC[C@]2(C(=O)O)CC[C@]3(C)[C@H](CC[C@@H]4[C@@]5(C)CC[C@H](C(=O)/C=C/c6ccc(O)cc6)C(C)(C)[C@@H]5CC[C@]43C)[C@@H]12 | 10.4 µM | > 100 µM | 23.6 µM | 70.1 µM | 9.43 µM | 29.3 µM | – | 19 µM | 39.5 µM | 9.53 µM | 36.2 µM
CC1[C@@H](OCc2ccccc2)COC(=O)N1Cc1ccccc1 (some centres not stated) | > 100 µM | > 100 µM | > 100 µM | > 100 µM | – | > 100 µM | > 100 µM | > 100 µM | – | > 100 µM | > 100 µM
CCOC(=O)c1c(NC(=O)Nc2ccccc2)c(C(N)=O)c2n1CCCCC2 | – | > 100 µM | > 100 µM | – | > 100 µM | > 100 µM | > 100 µM | > 100 µM | – | > 100 µM | > 100 µM
CCN(CC)Cc1cc(Nc2c3ccccc3nc3c2[nH]c2ccccc23)ccc1O | 6.22 µM | 1.01 µM | – | 3.31 µM | 4.2 µM | – | 3.35 µM | – | 2.33 µM | 2.19 µM | –
CCC1(N=[N+]=[N-])C(=O)Nc2cc(C)ccc2C1=O (configuration not stated) | > 100 µM | – | > 100 µM | > 100 µM | > 100 µM | – | > 100 µM | – | 15.6 µM | > 100 µM | –
CC1NC(/C(=C/c2ccccc2O)NC(=O)c2ccccc2)OC1=O (configuration not stated) | > 50 µM | > 50 µM | > 50 µM | > 50 µM | > 50 µM | > 50 µM | > 50 µM | > 50 µM | > 50 µM | > 50 µM | –
CC(=O)c1ccc2c(c1)oc(=O)n2CCN1CCCCC1 | > 100 µM | > 100 µM | > 100 µM | > 100 µM | > 100 µM | > 100 µM | – | > 100 µM | – | > 100 µM | > 100 µM
O=C(c1ccncc1)n1nc(-c2ccccc2)c(N=Nc2ccc([N+](=O)[O-])cc2)c1-c1ccccc1 | > 100 µM | > 100 µM | – | > 100 µM | > 100 µM | – | > 100 µM | – | > 100 µM | > 100 µM | –
